What was measured:
OX1 = target: T1, OX1 (Homo sapiens, UniProt O43613); assay: Orexin receptor cell-based functional assay, [Ca2+]i by FLIPR, CHO-OX1 cells; settings: CHO-OX1 cells, [Ca2+]i by FLIPR, antagonist dose-range 0.1 nM-10 μM, EC90 of OXA; read-out: OX1
T1 construct: expressed in transfected cells; host or cells: CHO (CHO-OX1, kept under selection antibiotic)
T1 sequence (O43613 1-425): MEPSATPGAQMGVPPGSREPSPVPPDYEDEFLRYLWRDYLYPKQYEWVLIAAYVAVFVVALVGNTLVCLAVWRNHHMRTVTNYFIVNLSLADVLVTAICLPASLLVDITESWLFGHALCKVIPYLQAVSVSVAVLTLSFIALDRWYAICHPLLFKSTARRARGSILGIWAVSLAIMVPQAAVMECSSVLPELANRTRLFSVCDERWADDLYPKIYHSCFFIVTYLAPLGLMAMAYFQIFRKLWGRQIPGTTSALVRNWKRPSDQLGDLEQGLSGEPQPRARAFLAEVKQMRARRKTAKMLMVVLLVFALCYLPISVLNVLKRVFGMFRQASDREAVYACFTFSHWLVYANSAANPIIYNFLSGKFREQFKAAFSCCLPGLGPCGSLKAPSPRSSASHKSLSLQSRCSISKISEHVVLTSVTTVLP
In short: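 Antagonist mode FLIPR calcium read in CHO-OX1 and CHO-OX2 lines. Test compounds, dosed 0.1 nM-10 μM, preincubated 30 min after 37° C dye loading with 2.5 mM probenecid (calcium4 for 30 min or calcium6 for 2 h).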

CYP3A4 = target: T2, CYP3A4 (Homo sapiens, UniProt P08684); assay: Cytochrome P450 inhibition assay (midazolam hydroxylation); type: in vitro ADME; settings: human, human liver microsomes, probe midazolam (hydroxylation to 1′-hydroxymidazolam), 10 μM test compound, midazolam at approximately its Km
T2 construct: pre-incubated with human liver microsomes and NADPH; from tissue; host or cells: human liver microsomes
In short: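 Percent inhibition of midazolam 1′-hydroxylation by 10 μM compound was measured, midazolam dosed at about Km. Time-dependent inhibition was probed by a 30 min preincubation of compound with human liver microsomes and NADPH ahead of substrate, compared against samples without preincubation.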

T2 sequence (P08684 whole entry): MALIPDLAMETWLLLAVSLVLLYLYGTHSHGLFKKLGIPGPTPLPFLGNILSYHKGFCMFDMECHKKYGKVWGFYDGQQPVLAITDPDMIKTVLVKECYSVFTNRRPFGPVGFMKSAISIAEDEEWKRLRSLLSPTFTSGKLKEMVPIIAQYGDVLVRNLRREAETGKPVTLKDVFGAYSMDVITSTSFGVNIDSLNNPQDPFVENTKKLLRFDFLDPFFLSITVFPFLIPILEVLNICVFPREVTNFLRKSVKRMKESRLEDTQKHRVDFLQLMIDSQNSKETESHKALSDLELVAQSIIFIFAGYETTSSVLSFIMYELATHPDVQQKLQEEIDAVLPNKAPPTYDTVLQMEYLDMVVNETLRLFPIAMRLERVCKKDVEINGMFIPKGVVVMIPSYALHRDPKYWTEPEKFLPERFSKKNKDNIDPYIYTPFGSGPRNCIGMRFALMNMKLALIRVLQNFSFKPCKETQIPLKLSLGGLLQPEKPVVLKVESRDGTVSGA

Row | SMILES | IC50 (OX1) [µM] | inhibition at 10 µM (CYP3A4) [%]
1 | Cc1ccc(-n2cccn2)c(C(=O)N2CCC[C@@H](C)[C@H]2CNc2ccc(Cl)cn2)n1 [Example A168, ((2S,3R)-2-(((5-Chloropyridin-2-yl)amino)methyl)-3-methylpiperidin-1-yl)(6-methyl-3-(1H-pyrazol-1-yl)pyridin-2-yl)methanone] | 0.01 | 59
2 | Cc1ccc(-c2ccccn2)c(C(=O)N2CCC[C@@H](C)[C@H]2CNc2ccc(C(F)(F)F)nn2)c1 [Example A150, ((2S,3R)-3-Methyl-2-(((6-(trifluoromethyl)pyridazin-3-yl)amino)methyl)piperidin-1-yl) (5-methyl-2-(pyridin-2-yl)phenyl)methanone] | 0.13 | 74
3 | C[C@@H]1CCCN(C(=O)c2cc(Cl)ccc2-n2nccn2)[C@@H]1CNc1ccc(C(F)(F)F)nn1 [Example A162, (5-Chloro-2-(2H-1,2,3-triazol-2-yl)phenyl)((2S,3R)-3-methyl-2-(((6-(trifluoromethyl)pyridazin-3-yl)amino)methyl)piperidin-1-yl)methanone] | 0.015 | 76
4 | Cc1ccc(-c2cccnn2)c(C(=O)N2CCC[C@@H](C)[C@H]2CNc2ccc(C(F)(F)F)cn2)c1 [Example A197, ((2S,3R)-3-methyl-2-(((5-(trifluoromethyl)pyridin-2-yl)amino)methyl)piperidin-1-yl)(5-methyl-2-(pyridazin-3-yl)phenyl)methanone] | 0.007 | 83
5 | Cc1ccc(-c2ccc(F)cn2)c(C(=O)N2CCC[C@@H](C)[C@H]2CNc2ccc(Cl)cn2)c1 [Example A159, ((2S,3R)-2-(((5-Chloropyridin-2-yl)amino)methyl)-3-methylpiperidin-1-yl)(2-(5-fluoropyridin-2-yl)-5-methylphenyl)methanone] | 0.17 | 88
6 | Cc1ccc(-n2nccn2)c(C(=O)N2CCC[C@@H](C)[C@H]2CNc2ccc(F)cn2)c1 [Example A47, ((2S,3R)-2-(((5-Fluoropyridin-2-yl)amino)methyl)-3-methylpiperidin-1-yl)(5-methyl-2-(2H-1,2,3-triazol-2-yl)phenyl)methanone] | 0.15 | 56
7 | Cc1ccc(-c2cnn(C)c2)c(C(=O)N2CCC[C@@H](C)[C@H]2CNc2nc3cc(Cl)ccc3o2)c1 [Example A12, ((2S,3R)-2-(((5-chlorobenzo[d]oxazol-2-yl)amino)methyl)-3-methylpiperidin-1-yl)(5-methyl-2-(1-methyl-1H-pyrazol-4-yl)phenyl)methanone] | 0.02 | 98
8 | Cc1ccc(-n2nccn2)c(C(=O)N2CCC[C@@H](C)[C@H]2CNc2ncc(C(F)(F)F)cn2)c1F [Example A319, (2-Fluoro-3-methyl-6-(2H-1,2,3-triazol-2-yl)phenyl)((2S,3R)-3-methyl-2-(((5-(trifluoromethyl)pyrimidin-2-yl)amino)methyl)piperidin-1-yl)methanone] | 0.006 | 53
9 | Cc1ccc(-c2ccccn2)c(C(=O)N2CCC[C@@H](C)[C@H]2CNc2ncc(C(F)(F)F)cn2)c1 [Example A152, ((2S,3R)-3-Methyl-2-(((5-(trifluoromethyl)pyrimidin-2-yl)amino)methyl)piperidin-1-yl) (5-methyl-2-(pyridin-2-yl)phenyl)methanone] | 0.004 | 86
10 | Cc1ccc(-c2cn[nH]c2)c(C(=O)N2CCC[C@@H](C)[C@H]2CNc2ccc(C(F)(F)F)cn2)c1 [Example A3, ((2S,3R)-3-Methyl-2-(((5-(trifluoromethyl)pyridin-2-yl)amino)methyl)piperidin-1-yl)(5-methyl-2-(1H-pyrazol-4-yl)phenyl)methanone] | 0.006 | 98
11 | Cc1ccc(-c2cnn(C)c2)c(C(=O)N2CCC[C@@H](C)[C@H]2CNc2ncccc2C)c1 [Example A100, ((2S,3R)-3-Methyl-2-(((3-methylpyridin-2-yl)amino)methyl)piperidin-1-yl)(5-methyl-2-(1-methyl-1H-pyrazol-4-yl)phenyl)methanone] | 1.3 | 85
12 | Cc1ccc(-c2nn[nH]n2)c(C(=O)N2CCC[C@@H](C)[C@H]2CNc2ccc(C(F)(F)F)cn2)c1 [Example A23, ((2S,3R)-3-Methyl-2-(((5-(trifluoromethyl)pyridin-2-yl)amino)methyl)piperidin-1-yl)(5-methyl-2-(2H-tetrazol-5-yl)phenyl)methanone] | > 1 | 75
13 | Cc1ccc(-c2cnn(C)c2)c(C(=O)N2CCC[C@@H](C)[C@H]2CNc2ncccc2C(F)(F)F)c1 [Example A93, ((2S,3R)-3-Methyl-2-(((3-(trifluoromethyl)pyridin-2-yl)amino)methyl)piperidin-1-yl)(5-methyl-2-(1-methyl-1H-pyrazol-4-yl)phenyl)methanone] | 0.46 | 96
14 | Cc1ccc(-c2ncccn2)c(C(=O)N2CCC[C@@H](C)[C@H]2CNc2ccc(C(F)(F)F)nn2)c1 [Example A137, ((2S,3R)-3-Methyl-2-(((6-(trifluoromethyl)pyridazin-3-yl)amino)methyl)piperidin-1-yl)(5-methyl-2-(pyrimidin-2-yl)phenyl)methanone] | 0.031 | 47
15 | Cc1ccc(-n2ncc(C)n2)c(C(=O)N2CCC[C@@H](C)[C@H]2CNc2nc3cc(Cl)ccc3o2)c1 [Example A116, ((2S,3R)-2-(((5-Chlorobenzo[d]oxazol-2-yl)amino)methyl)-3-methylpiperidin-1-yl)(5-methyl-2-(4-methyl-2H-1,2,3-triazol-2-yl)phenyl)methanone] | 0.004 | 75
16 | Cc1ccc(-n2nccn2)c(C(=O)N2CCC[C@@H](C)[C@H]2CNc2ccc(C(F)(F)F)nn2)c1 [Example A119, ((2S,3R)-3-Methyl-2-(((6-(trifluoromethyl)pyridazin-3-yl)amino)methyl)piperidin-1-yl)(5-methyl-2-(2H-1,2,3-triazol-2-yl)phenyl)methanone] | 0.019 | 59
17 | Cc1ccc(-n2nccn2)c(C(=O)N2CCC[C@@H](C)[C@H]2CNc2ncc3cc(C)ccc3n2)c1 [Example A220, ((2S,3R)-3-Methyl-2-(((6-methylquinazolin-2-yl)amino)methyl)piperidin-1-yl)(5-methyl-2-(2H-1,2,3-triazol-2-yl)phenyl)methanone] | 0.011 | 68
18 | Cc1ccc(C(=O)N2CCC[C@@H](C)[C@H]2CNc2ccc(C(F)(F)F)cn2)c(-c2ncccn2)c1F [Example A358, (3-fluoro-4-methyl-2-(pyrimidin-2-yl)phenyl)((2S,3R)-3-methyl-2-(((5-(trifluoromethyl)pyridin-2-yl)amino)methyl)piperidin-1-yl)methanone] | 0.005 | 83
19 | Cc1ccc(-n2nccn2)c(C(=O)N2CCC[C@@H](C)[C@H]2CNc2ccc(C(F)(F)F)nn2)n1 [Example A176, ((2S,3R)-3-Methyl-2-(((6-(trifluoromethyl)pyridazin-3-yl)amino)methyl)piperidin-1-yl)(6-methyl-3-(2H-1,2,3-triazol-2-yl)pyridin-2-yl)methanone] | 0.006 | 37
20 | C[C@@H]1CCCN(C(=O)c2cc(F)c(F)cc2-n2nccn2)[C@@H]1CNc1ccc(C(F)(F)F)cn1 [Example A249, (4,5-Difluoro-2-(2H-1,2,3-triazol-2-yl)phenyl)((2S,3R)-3-methyl-2-(((5-(trifluoromethyl)pyridin-2-yl)amino)methyl)piperidin-1-yl)methanone] | 0.018 | 83
21 | Cc1ccc(-n2nccn2)c(C(=O)N2CCC[C@@H](C)[C@H]2CNc2ccc(C3(C#N)CC3)cn2)c1 [Example A140, 1-(6-((((2S,3R)-3-Methyl-1-(5-methyl-2-(2H-1,2,3-triazol-2-yl)benzoyl)piperidin-2-yl)methyl)amino)pyridin-3-yl)cyclopropanecarbonitrile] | 0.013 | 64
22 | C[C@@H]1CCCN(C(=O)c2ccccc2-n2nccn2)[C@@H]1CNc1ccc(C(F)(F)F)cn1 [Example A314, (2-(2H-1,2,3-Triazol-2-yl)phenyl)((2S,3R)-3-methyl-2-(((5-(trifluoromethyl)pyridin-2-yl)amino)methyl)piperidin-1-yl)methanone] | 0.002 | 76
23 | Cc1ccc(-c2ccccn2)c(C(=O)N2CCC[C@@H](C)[C@H]2CNc2ncc(C#N)cn2)c1 [Example A153, 2-((((2S,3R)-3-Methyl-1-(5-methyl-2-(pyridin-2-yl)benzoyl)piperidin-2-yl)methyl)amino)pyrimidine-5-carbonitrile] | 0.14 | 66
